Measured values from patent US8048896B2, “Methods for inhibiting and breaking AGE complex formation” (Cell Viable Corporation, priority 2005, dated 2011).

Key:
[1] = target: AGE formed on glycated bovine serum albumin (Bos taurus, UniProt P02769); experiment: AGE-breaking ELISA on ribose-glycated bovine serum albumin; type: biochemical; conditions: FIG. 1; various concentrations, 48 hr at 37° C.; ELISA with polyclonal anti-AGE-RNAse antibodies
Experimental: Specifically, bovine serum albumin (10 mg/mL) was incubated with 0.5 M ribose in 0.4 M phosphate buffer, pH 7.5, containing 0.02% sodium azide for 24 hr at 37° C., followed by extensive dialysis for 24 hr at 4° C. to remove excess and reversibly bound ribose. AGE formation was then initiated by incubating 0.1 mg/mL (or 1:100 dilution in phosphate buffer) of the glycated protein at 37° C. Then the AGE formed were treated with various concentrations for the compounds for 48 hr at 37° C. Aliquots from each sample were taken and diluted with 0.1 M sodium carbonate buffer to 50 μg/mL. Then 50 μl of the diluted sample was added to wells of a 96-well polystyrene plate (1.0 μg/well) and incubated overnight at room temperature. The plates were washed thrice with PBS-0.05% Tween and blocked for 1 hr with Superblock blocking buffer. The amount of AGE in each treatment was then quantified by ELISA using polyclonal anti-AGE-RNAse antibodies. Percent AGE-breaking was calculated as: (100*(mean OD wells of control-mean OD wells with compound/mean OD wells control).

[2] = tested on: AGE crosslinks in tail tendon collagen of old diabetic rats; experiment: Acid solubility of tail tendon collagen treated with AGE-breakers; type: biochemical, rat; conditions: FIG. 2; particularly at 1.0 and 10 mM concentrations
Experimental: (§1) The effects of these compounds on AGE crosslinks that form in vivo in tail tendon collagen of old diabetic rats were determined. Non-diabetic rats served as controls. P values were calculated using unpaired Student's t-test. The extent of AGE crosslinking of tail tendon collagen formed in vivo was assessed by acid insolubility (FIG. 2, * P<0.05 vs. non-diabetic control; ** P<0.05 vs. diabetic control) and fluorescence measurements of collagen treated with AGE-breakers after pepsin (FIG. 3; * P<0.05 vs. diabetic control) or papain digestion (FIG. 4; * P<0.05 vs. non-diabetic control; ** P<0.05 vs. diabetic control). In each of FIGS. 2-4, panel A is LR-20, panel B is LR-23, panel C is LR-99 and panel D is LR-102.

[3] = tested on: AGE crosslinks in tail tendon collagen of old diabetic rats; experiment: Fluorescence of collagen treated with AGE-breakers after pepsin digestion; type: biochemical, rat; conditions: FIG. 3; particularly at 1.0 and 10 mM concentrations
Experimental: as §1

[4] = tested on: AGE crosslinks in tail tendon collagen of old diabetic rats; experiment: Fluorescence of collagen treated with AGE-breakers after papain digestion; type: biochemical, rat; conditions: FIG. 4; particularly at 1.0 and 10 mM concentrations
Experimental: as §1

[5] = tested on: AGE-derived protein crosslinks; conditions: in vitro and in vivo; cited from earlier work

AGE formed on glycated bovine serum albumin, sequence (P02769 25-607): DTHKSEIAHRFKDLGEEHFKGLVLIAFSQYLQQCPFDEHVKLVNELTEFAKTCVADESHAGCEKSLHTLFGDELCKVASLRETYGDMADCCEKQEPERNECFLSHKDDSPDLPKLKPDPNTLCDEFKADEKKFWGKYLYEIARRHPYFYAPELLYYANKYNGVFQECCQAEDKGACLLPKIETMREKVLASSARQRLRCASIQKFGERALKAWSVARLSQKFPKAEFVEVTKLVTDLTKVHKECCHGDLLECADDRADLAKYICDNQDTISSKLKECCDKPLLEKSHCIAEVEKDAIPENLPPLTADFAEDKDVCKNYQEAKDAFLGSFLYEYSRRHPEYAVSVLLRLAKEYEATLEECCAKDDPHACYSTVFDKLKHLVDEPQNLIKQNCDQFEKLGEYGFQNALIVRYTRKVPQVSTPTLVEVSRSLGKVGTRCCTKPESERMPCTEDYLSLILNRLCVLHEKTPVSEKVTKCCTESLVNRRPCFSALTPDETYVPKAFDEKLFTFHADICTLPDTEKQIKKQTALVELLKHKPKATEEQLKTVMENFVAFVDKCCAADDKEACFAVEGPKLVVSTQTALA

Row | Compound | Percent AGE-breaking [1] | collagen solubility in weak acetic acid (acid insolubility) [2] | fluorescence associated with AGE crosslinks after pepsin digestion [3] | fluorescence associated with AGE crosslinks after papain digestion [4] | cleavage of AGE-derived protein crosslinks [5]
1 | Cc1ncc(CO)c(CN)c1O [pyridoxamine] | concentration dependent AGE-breaking properties |  |  |  | 
2 | CC(C)(Oc1ccc(N=Cc2ccc(C=Nc3ccc(OC(C)(C)C(=O)O)cc3)cc2)cc1)C(=O)O [LR-102, 1,4-benzene-bis-(4-methyleneaminophenoxyisobutyric acid)] |  | increased collagen solubility | reduction of fluorescence | reduction of fluorescence | 
3 | CC(C)(Oc1ccc(NC(=O)c2ccc(Cl)cc2)cc1)C(=O)N[C@@H](CSSC[C@H](NC(=O)C(C)(C)Oc1ccc(NC(=O)c2ccc(Cl)cc2)cc1)C(=O)O)C(=O)O [LR-20, L-bis-[4-(4-chlorobenzamidophenoxyisobutyryl)cystine]] |  | increased collagen solubility | reduction of fluorescence | reduction of fluorescence | 
4 | CC(C)(Oc1ccc(NC(=O)Nc2cc(Cl)cc(Cl)c2)cc1)C(=O)Nc1ccc(C(=O)O)cc1 [LR-99, 4-(3,5-dichlorophenylureidophenoxyisobutyryl)-4 amino benzoic acid] |  | increased collagen solubility | reduction of fluorescence | reduction of fluorescence | 
5 | O=C(C[n+]1ccsc1)c1ccccc1.[Br-] [N-phenacylthiazolium bromide (PTB), N-phenacylthiazolium bromide] |  |  |  |  | selectively cleaves AGE-derived protein crosslinks in vitro and in vivo
6 | CC(C)(Oc1ccc(NC(=O)Nc2cc(Cl)cc(Cl)c2)cc1)C(=O)NC1(C(=O)O)CCCCC1 [LR-23, 4-(3,5-dichlorophenylureido)phenoxyisobutyryl-1-amidocyclohexane-1-carboxylic acid] |  | increased collagen solubility | reduction of fluorescence | reduction of fluorescence | 
